Test results: patent US11389449B2, “Treatment of metabolic syndrome with an sGC stimulator” (Cyclerion Therapeutics, Inc., priority 2017, dated 2022)

Tests used:
ZSF1 obese rats [1] = assay: Oral glucose tolerance test (OGTT) and fasting glucose in ZSF1 rats at week 10; type: in vivo, rat; conditions: enalapril 3 mpk
Method: Male ZSF1 rats (body weight 400-430 grams (lean control) and 500-605 grams (obese) at baseline) were used for this study. All animals were housed in a room under controlled conditions of temperature (72±8° F.), relative humidity of 30-70% and a 12-hour light-dark cycle (lights on at 6:00 AM and off at 6:00 PM) at a fully AAALAC accredited, USDA registered and OLAW assured laboratory animal research facility. All animals were allowed free access to rodent chow (Purina 5008+/−test articles) and water (+/−enalapril).
(§1) Blood and 24-hour urine samples were obtained from all animals at day 0 (15 weeks of age; prior to the initiation of enalapril treatment). Animals in Groups 3, 7, 8 and 9 were placed on drinking water containing enalapril and kept on Purina 5008 rodent chow (C13000). Animals in Group 1, 2, 4, 5 and 6 were kept on Purina 5008 rodent chow and drinking water. Ten days after the initiation of enalapril treatment, blood and 24-hour urine samples were collected from all animals. After day 10 blood and urine collections, animals in Groups 4, 5 and 6 received Compound I at 1, 3 and 10 mg/kg/day, respectively for 11 weeks. In addition to enalapril treatment, animals in Groups 7, 8 and 9 received Compound I at 1, 3 and 10 mg/kg/day, respectively for an additional 11 weeks.
(§2) 10 weeks after the initiation of Compound I treatment, animals (27 weeks of age) were fasted for 18 hours. Serum samples were collected for the measurement of fasting insulin levels. Serum insulin levels were determined using the Rat Insulin ELISA kit (Cat #ELR-Insulin, RayBiotech, Inc.)
For OGTT, animals were given glucose solution (50% Dextrose) at 2 g/kg via oral gavage. Blood samples were collected prior to oral glucose administration (0 minute) and 30, 60, 90, 120 and 180 minutes after administration. Blood glucose levels were measured using a standard blood glucose monitoring system (AlphaTRAK). The blood glucose reading at time 0 (prior to glucose administration) corresponds to the fasting glucose measurement.
(§3) The data are expressed as mean±SEM. […] One-tailed tests were used for comparison of variables. Statistical significance is indicated by P values less than 0.05.

ZSF1 obese rats [2] = assay: Fasting serum insulin in ZSF1 rats (Rat Insulin ELISA); type: in vivo; conditions: week 10, enalapril 3 mpk
From the text: as §1, §2, §3

ZSF1 obese rats [3] = assay: ZSF1 rat study: serum clinical chemistry (cholesterol, triglycerides), body weight, clinical observations; type: in vivo; conditions: ZSF1 obese rats; enalapril 3 mg/kg/day; Animal #8; 3 days after initiation
From the text: as §1
Body weight and 24-hour water intake were obtained at least once every other week. 24-hour food intake was measured at baseline and week 8.
Plasma (for biomarker) and serum (for clinical chemistry analysis) samples were collected from all treatment groups at baseline, day 10, weeks 5 and 9 prior to placing the animals into the metabolic cages. Plasma samples were obtained from Groups 3-9 for measurement of compound exposure levels at weeks 5 and 11. Terminal plasma and serum samples were obtained at necropsy.
For serum samples, blood was collected in serum separator tubes, maintained at room temperature for at least 30 minutes and then centrifuged at 6000 rpm for 10 minutes. Serum samples were stored at −80° C. until analysis. Urine and serum samples were analyzed using the Randox Daytona Clinical Chemistry Analyzer. All measurements were performed in accordance with manufacturer's instructions.
Animal #8 (in Group 3, ZSF1—enalapril 3 mg/kg/day) was found dead 3 days after the initiation of enalapril treatment.

CCOC(=O)[C@H](CCc1ccccc1)N[C@@H](C)C(=O)N1CCC[C@H]1C(=O)O [enalapril, reference compound]
Fasting Blood Glucose (0 minute) (ZSF1 obese rats [1]): 255 ± 13 mg/dL
OGTT Area Under Curve (AUC) (ZSF1 obese rats [1]): 84459 ± 1409
OGTT Blood Glucose 120 minutes (ZSF1 obese rats [1]): 452 ± 10 mg/dL
OGTT Blood Glucose 180 minutes (ZSF1 obese rats [1]): 435 ± 9 mg/dL
Fasting Insulin (ZSF1 obese rats [2]): 11.4 ± 1.7 μIU/mL
clinical observation (ZSF1 obese rats [3]): found dead
